For data set [1] the following is noted: cited from earlier work.
Data set [2] can be described thus: Pharmacokinetics in plasma after single bolus intravenous administration to rats. More on the design: species or system Sprague Dawley rats. As to conditions: rat, in vivo; for AUC(0-inf) / AUC(0-t) / Cmax / clearance / half-life: male, Sprague Dawley. The protocol: GLP-1 (9-36) analogues containing C-terminal extensions (FIG. 2) were tested in 9 week old male Sprague Dawley rats to evaluate biological half-life as well as other pharmacokinetic properties of the analogues. Rats used in the study were acclimated to laboratory conditions for approximately 1 week prior to testing. Polypeptide analogues were prepared as solutions for intravenous administration (bolus injection in the jugular vein) at concentrations of 0.15 mg/mL and 1.5 mg/mL in appropriate buffers. The compounds were then injected while the animals were still under anesthesia. Blood samples were taken form each animal at no more than 5 occasions. Following dose administration, blood samples (0.3 to 0.4 mL) were obtained by jugular venipuncture (lithium heparin was used as an anticoagulant) at selected time points (0, 2.5, 5, 10 and 15 minutes or 30, 45, 60, 120 and 240 minutes). The samples were analyzed for parent drug by LC-MS/MS. Numerical data was subjected to calculation of group mean values, standard deviations and coefficients of variation (expressed as a percent), where appropriate. The pharmacokinetic analysis (non-compartmental) of plasma concentration was performed using the PhAST software program (Version 2.3-004, Pheonix International Life Sciences Inc.). The highest experimental concentration was considered the peak concentration (Cmax; observed value). Whenever possible, the observed terminal phase rate constant (Kel) was calculated from the terminal 3 or more points (non-zero and non-Cmax points) of the log-linear regression. The number of points included in the regression analysis was such as to optimize r^2 value calculated for the regression. Terminal phase half-life (t1/2) was determined by dividing 0.693 by Kel. The area under the plasma concentration of each compound versus time-curve from time zero to the last quantifiable concentration (AUC0-t) was calculated by the linear trapezoidal method (Bailer, A. J., (1988) J. Pharmacokin. Biopharm., 1, 303-309). AUC0-∞, the area under the plasma concentration versus time curve from time zero to infinity, was calculated as the sum of AUC0-t plus the ratio of the last plasma concentration to Kel. Values below the limit of quantification were assigned a value of zero for pharmacokinetic analysis.

This is an account of results in patent US20110245173A1, “Long-Acting GLP-1 Derivatives, and Methods of Treating Cardiac Dysfunction” (priority 2008, published 2011).

On to `CC[C@H](C)[C@H](NC(=O)[C@H](Cc1ccccc1)NC(=O)[C@H](CCC(=O)O)NC(=O)[C@H](CCCCN)NC(=O)[C@H](C)NC(=O)[C@H](C)NC(=O)[C@H](CCC(N)=O)NC(=O)CNC(=O)[C@H](CCC(=O)O)NC(=O)[C@H](CC(C)C)NC(=O)[C@H](Cc1ccc(O)cc1)NC(=O)[C@H](CO)NC(=O)[C@H](CO)NC(=O)[C@@H](NC(=O)[C@H](CC(=O)O)NC(=O)[C@H](CO)NC(=O)[C@@H](NC(=O)[C@H](Cc1ccccc1)NC(=O)[C@@H](NC(=O)CNC(=O)[C@@H](N)CCC(=O)O)[C@@H](C)O)[C@@H](C)O)C(C)C)C(=O)N[C@@H](C)C(=O)N[C@@H](Cc1c[nH]c2ccccc12)C(=O)N[C@@H](CC(C)C)C(=O)N[C@H](C(=O)N[C@@H](CCCCN)C(=O)NCC(=O)N[C@@H](CCCNC(=N)N)C(N)=O)C(C)C` [DGS70], for which the half-life in vivo in data set [1] is 2 to 4 min. In data set [2] (0.15 mg/kg), the AUC(0-inf) was 65.1 ng·h/mL, the AUC(0-t) is 63.8 ng·h/mL, the Cmax came out at 1060 ng/mL and the clearance is 38.4 mL/min/kg. The “Tmax: Time to Cmax” value in data set [2] (0.15 mg/kg) was determined as 2.50 min. Also, the half-life in data set [2] (0.15 mg/kg, T1/2: Terminal phase half-life) was determined as 1.64 min. In data set [2] (1.5 mg/kg), this molecule had an AUC(0-inf) of 679 ng·h/mL, an AUC(0-t) of 672 ng·h/mL, a Cmax of 10600 ng/mL and a clearance of 36.8 mL/min/kg. In addition, in data set [2] (1.5 mg/kg), the “Tmax: Time to Cmax” value was 2.50 min. The half-life in data set [2] (1.5 mg/kg, T1/2: Terminal phase half-life) stood at 2.22 min. Moreover, the half-life in data set [2] (1.5 mg/kg, half-life) lay in the range of 1.6 to 2.2 min.
